Source: patent US20160075682A1, “INHIBITORS OF NICOTINAMIDE PHOSPHORIBOSYLTRANSFERASE, COMPOSITIONS, PRODUCTS AND USES THEREOF” (UNIVERSITÀ DEGLI STUDI DEL PIEMONTE ORIENTALE "AMEDEO …, priority 2013, published 2016)

Columns and labels:
[1] = tested on: DNBS-induced colitis in BALB/c mice; experiment: Experimental colitis induced by DNBS; format: in vivo; conditions: i.p.; for MPO in the colon / NAMPT in the colon / TNFalpha in the colon / VEGF in the colon: DNBS-treated mice, between 20 mg/Kg and 500 mg/Kg, compared to untreated colitis mice; for protection from DNBS-induced colitis as assessed by the macroscopic damage score: doses of between 20 mg/Kg and 500 mg/Kg
Description: Animal work was authorized by the local ethical committee for animal studies (Università del Piemonte Orientale). BALB/c mice (Harlan Nossan, Milan, Italy) were anesthetized by enflurane. Dinitrobenzene sulfonic acid (DNBS; 4 mg in 100 μl of 50% ethanol) was injected into the rectum through a catheter inserted 4.5 cm proximally to the anus. Carrier alone (100 μl of 50% ethanol) was administered in control experiments. Thereafter, the animals were kept for 15 minutes in a Trendelenburg position to avoid reflux. Treatment with either solvent alone or drugs was done immediately after induction and thereafter twice a day. […] On Day 4, the animals were weighed and anaesthetized with chloral hydrate, and the abdomen was opened by a midline incision. The colon was removed, freed from surrounding tissues, opened along the antimesenteric border, rinsed, weighed, and processed for histology, biochemical measurements and immunohistochemistry. Colon damage (macroscopic damage score) was evaluated and scored by two independent observers according to the following criteria: 0, no damage; 1, localized hyperemia without ulcers; 2, linear ulcers with no significant inflammation; 3, linear ulcers with inflammation at one site; 4, two or more major sites of inflammation and ulceration extending >1 cm along the length of the colon; and 5-8, one point is added for each centimeter of ulceration beyond an initial 2 cm. Biochemical and histological analysis also included TNFalpha measurements and myeloperoxidase (MPO) measurements by ELISA assay, and VEGF, NAMPT, COX-2 measurements by immunoblotting. (Esposito E, Mazzon E, Paterniti I, Dal Toso R, Pressi G, Caminiti R, Cuzzocrea S. PPAR-alpha Contributes to the Anti-Inflammatory Activity of Verbascoside in a Model of Inflammatory Bowel Disease in Mice. PPAR Res. 2010; 2010:917312).
As previously described, the colon of DNBS- or dextran treated animals was removed after the induction of colitis. Compounds of formula (I) were administered intraperitoneally (i.p.).

SH-SY5Y, HeLa = experiment: MTT cell proliferation assay and trypan blue count (cell viability); format: cell-based; conditions: cells treated for 48 and 72 hours; read-out: IC50 values (inhibition of cellular proliferation, MTT assay and trypan blue assay)
Procedure, shortened: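 SH-SY5Y and HeLa cells, 8×10^5 per well, exposed 48 and 72 h with final DMSO ≤0.5%. Viability by MTT (250 μg/ml, 1 h, A570 after isopropanol/HCl) and by trypan blue count. IC50 from dose-response curves for some compounds.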

IC50 (SH-SY5Y, HeLa)	Compound	MPO in the colon [1]	NAMPT in the colon [1]	TNFalpha in the colon [1]	VEGF in the colon [1]	protection from DNBS-induced colitis as assessed by the macroscopic damage score [1]
< 300 nM	c1ccc(-c2ccccc2OCCCCCCn2cc(-c3cccnc3)nn2)cc1 [3-(1-(6-([1,1′-biphenyl]-2-yloxy)hexyl)-1H-1,2,3-triazol-4-yl)pyridine]	able to reduce	able to reduce	able to reduce	able to reduce	able to protect
< 300 nM	O=C(NCCCCCCCn1cc(-c2cccnc2)nn1)c1ccccc1-c1ccccc1 [N-(7-(4-(pyridin-3-yl)-1H-1,2,3-triazol-1-yl)heptyl)-[1,1′-biphenyl]-2-carboxamide]	able to reduce	able to reduce	able to reduce	able to reduce	able to protect
